From publication PMC12400753 (Respiratory Research, 2025)

Tests used:
[1] = design: method as in NCT05983939; conditions: Phase I; ref NCT05983939; cited from earlier work
[2] = tested on: bleomycin-induced lung fibrosis; test: Systemic (subcutaneous) bleomycin mouse model; type: in vivo; conditions: 3 mg/kg oral once a day, therapeutic
Method: Mice were injected subcutaneously with bleomycin (0.1 units/day), on a schedule of 5 days on/2 days off to induce fibrosis. […] Dosing was maintained until study end, at which point lung tissues were collected. The right lobe was snap frozen and processed for collagen analysis for hydroxyproline; the left lobe was sectioned and stained with Masson’s trichrome stain for histological assessment of tissue collagen. This study was conducted by Inotiv (West Lafayette, IN). Forty-four female 9 week old C57Bl/6 mice (Jackson Labs) were provided standard chow (Envigo, Cat #: 8940), housed under standard conditions, and allowed to acclimate for > 3 days prior to enrollment. Prior to start, mice were weighed and placed into balanced enrollment groups. Four days prior to start, mice were anesthetized, dorsal fur shaved and removed with depilatory agent, and two circles (~ 1.5 cm diameter) heat-branded on their dorsal abdomen. Fur was removed as needed for the balance of the study to ensure consistent location of s.c. injections. Beginning on day 0 and through day 26, mice were anesthetized with isoflurane and administered 0.9% NaCl or bleomycin injections (100 µl/injection, s.c.) into each of the circles (2 injections/mouse/d) on a 5 day on/2 day off paradigm. Mice were administered 0.9% NaCl (vehicle) or bleomycin (0.1 U) with bleomycin doses split evenly between the two circles (i.e., 0.05 U/circle). […] Weight measures and health observations were made daily. On day 27, mice were dosed to enable trough blood/plasma collection on day 28, which was collected via retro-orbital approach under isoflurane anesthesia. Following blood collection, mice were administered vehicle or compound on a timetable as appropriate to enable a peak blood collection 2 h postdose. At the time of sacrifice, mice were anesthetized with pentobarbital, a tracheotomy performed and interfaced with a positive pressure ventilator providing 100% O2. The mouse’s chest was then opened, and a needle interfaced with an infusion pump introduced to the right ventricle. […] The lungs were then harvested, immediately immersed in ice-cold 0.9% NaCl, gross dissected and subjected to morphological analyses. Tissue samples will be processed for biochemical and/or histological analyses as described below. Masson’s Trichrome Blue stained slides were subjected to histological analyses using color segmentation analysis for lung fibrosis. Frozen lung samples underwent hydroxyproline analysis as described below. Lung tissue processing – following exsanguination and flushing of the pulmonary circulation to clear blood, the lungs were removed, placed in ice-cold 0.9% NaCl and processed on wet ice. Extraneous tissue was removed and whole lung weight recorded. […]

[3] = tested on: mouse alveolar macrophages; test: IL-1β release of alveolar macrophages from orally dosed mice, ex vivo LPS; type: in vivo; conditions: 3 mg/kg oral, 24 h before isolation; with and without ex vivo LPS
Method: 1.5 mL DPBS was injected into lungs and BAL fluid aspirated. Cells were plated in at 40,000 cells/well and stimulated first with 500 ng/mL LPS for 4 h then and 1 µM LPA for an additional hour at 37 °C. Plates were spun down and supernatant analyzed for IL-1β by ELISA.

[4] = tested on: bleomycin-induced lung fibrosis; test: Intratracheal bleomycin mouse model (14 day, prophylactic dosing); type: in vivo; conditions: for body weight improvement over bleomycin alone: day 14
Method: Intratracheal instillation of bleomycin results in acute alveolar cell damage, inflammation, and subsequent tissue remodeling and is a widely used preclinical IPF model.
Female C57BL6/N mice 8–10 weeks old were obtained from Charles River. […] Bleomycin was administered by oropharyngeal instillation 23 h after first dose (Day 0). On the day of instillation, bleomycin was prepared by diluting a 15 unit (U) vial to 1.5 U/mL with sterile saline. Mice were lightly anesthetized with isoflurane (5% in 100% O2) and administered sterile saline or bleomycin (3.0 U/kg) via oropharyngeal instillation at a dose volume of 2 mL/kg (2 µL/g). Mice were returned to their cages and monitored daily for the duration of each experiment. […] Fourteen days after bleomycin instillation, mice were euthanized via isoflurane anaesthesia, cardiac blood collected into K3EDTA tubes and stored on wet ice, and BALF and lungs were isolated for subsequent analysis of biochemical and histopathological indices of lung injury, inflammation, and fibrosis. To do this, mice were intubated with a 20-gauge luer stub adapter connected to a 3-way stopcock fitted with two 3 mL syringes (the delivery syringe was pre-filled with 1.5 mL phosphate buffered saline (PBS), and the receiving syringe was empty). Lungs were lavaged with PBS (2 × 0.75 mL) to obtain BALF. BALF was placed on wet ice until centrifugation to separate from cells. Lungs were dissected and placed into 1 mL 6 M HCl for collagen analysis using the Quickzyme total collagen assay kit according to manufacturer’s instructions. At the end of the experimental collection, BALF was centrifuged (300 x g, 10 min, 4 °C) to isolate BALF from the cell pellet. The cell pellet was discarded and the BALF aliquoted and stored at −80 °C for biomarker analysis. For the analysis, n = 8 biological replicates were analyzed in singlicate for various biomarkers (total protein, TGFβ1, TIMP-1, procollagen) according to manufacturer’s recommended instructions.

[5] = tested on: primary human lung fibroblasts; test: LPA-induced chemotaxis assay; type: cell-based; conditions: 1 µM LPA chemoattractant; 6 h preincubation; read-out: IC50 inhibition of fibroblast chemotaxis
Method: Chemotaxis assay: Primary human lung fibroblasts were obtained from ATCC (Cat # PCS-201-020) and cultured in fibroblast media as per ATCC directions. Fibroblasts were serum starved overnight in basal fibroblast media. Cells were then lifted using CellStripper, centrifuged at 500 x g for 10 min, then resuspended in basal media. […] The receiving chamber contained 1 µM LPA. Chemotaxis was quantified as per Cell Biolabs, Inc instructions on a Flexstation 3 (Molecular Devices).

COc1ccc(NC(=O)N(c2ccccc2C(C)C)C2CCC(C(=O)O)CC2)c(OC(F)F)n1 (stereo not shown) [PIPE-791]
safety and tolerability [1]: safe and well-tolerated | reduction in lung hydroxyproline compared to bleomycin/vehicle [2]: 40% | tissue collagen fraction (TCF), trichrome ([2]; p = 0.0017): nearly full reduction | IL-1β levels of isolated alveolar macrophages [3]: comparable to baseline | body weight improvement over bleomycin alone ([4]; 0.03 mg/kg oral once a day): 28% | lung hydroxyproline (collagen) ([4]; 0.03 mg/kg oral once a day, p = 0.077): trending decrease in collagen, the values did not reach statistical significance | reduction in lung hydroxyproline ([4]; 0.3 mg/kg oral once a day): 41% | body weight improvement over bleomycin alone ([4]; 0.3 mg/kg oral once a day): 41% | reduction in BAL fluid TGFβ vs bleomycin/vehicle ([4]; 3 mg/kg oral once a day): 51% | reduction in BAL fluid TIMP1 vs bleomycin/vehicle ([4]; 3 mg/kg oral once a day): 57% | reduction in BAL fluid procollagen vs bleomycin/vehicle ([4]; 3 mg/kg oral once a day): 65% | reduction in lung hydroxyproline ([4]; 3 mg/kg oral once a day): 39% | body weight improvement over bleomycin alone ([4]; 3 mg/kg oral once a day): 38% | survival ([4]; 0.03, 0.3, 3 mg/kg groups, 3 mice died in bleomycin/vehicle group): no mice lost | maximal inhibition of lung collagen ([4]; prophylactic, at 0.3 mg/kg (discussion)): 40% | IC50 [5]: 1.5 nM
